Test results published in PubChem BioAssay AID1259407 (Chemical Carcinogenesis Research Information System (CCRIS), 2018).
Active and inactive are the calls of the source. How the calls were made is not given here.

Tested on: CCRIS mutagenicity, Ames/micronucleus/aberration tests
Assay: CCRIS mutagenicity studies
[1] = Test System: AMES SALMONELLA TYPHIMURIUM, Strain/Indicator: TA98, Metabolic Activation: NONE, Method: STANDARD PLATE
[2] = Test System: AMES SALMONELLA TYPHIMURIUM, Strain/Indicator: TA98, Metabolic Activation: RAT, LIVER, S-9, PHENOBARBITAL, Method: STANDARD PLATE
[3] = Test System: AMES SALMONELLA TYPHIMURIUM, Strain/Indicator: TA100, Metabolic Activation: NONE, Method: STANDARD PLATE
[4] = Test System: AMES SALMONELLA TYPHIMURIUM, Strain/Indicator: TA1535, Metabolic Activation: NONE, Method: STANDARD PLATE
[5] = Test System: AMES SALMONELLA TYPHIMURIUM, Strain/Indicator: TA1535, Metabolic Activation: RAT, LIVER, S-9, PHENOBARBITAL, Method: STANDARD PLATE
[6] = Test System: AMES SALMONELLA TYPHIMURIUM, Strain/Indicator: TA1537, Metabolic Activation: NONE, Method: STANDARD PLATE
[7] = Test System: AMES SALMONELLA TYPHIMURIUM, Strain/Indicator: TA1537, Metabolic Activation: RAT, LIVER, S-9, PHENOBARBITAL, Method: STANDARD PLATE
[8] = Test System: AMES SALMONELLA TYPHIMURIUM, Strain/Indicator: TA102, Metabolic Activation: NONE, Method: STANDARD PLATE
[9] = Test System: AMES SALMONELLA TYPHIMURIUM, Strain/Indicator: TA98, Metabolic Activation: RAT, LIVER, S-9, AROCLOR 1254, Method: STANDARD PLATE

In the case of Fc1ccc2c3c(cccc13)-c1c-2ccc2ccccc12, the mutagenic call (Test System: AMES SALMONELLA TYPHIMURIUM, Strain/Indicator: TA97A, Metabolic Activation: RAT, LIVER, S-9, AROCLOR 1254, Method: PREINCUBATION) is reported as “active; positive”, the mutagenic call (Test System: AMES SALMONELLA TYPHIMURIUM, Strain/Indicator: TA98, Metabolic Activation: RAT, LIVER, S-9, AROCLOR 1254, Method: PREINCUBATION) is reported as “active; positive” and the mutagenic call (Test System: AMES SALMONELLA TYPHIMURIUM, Strain/Indicator: TA100, Metabolic Activation: RAT, LIVER, S-9, AROCLOR 1254, Method: PREINCUBATION) is reported as “active; positive”.

With CCOC(=O)COc1ccc2c(=O)cc(-c3ccccc3)oc2c1 the mutagenic call [1] was “inactive; negative”, the mutagenic call [2] was “inactive; negative” and the mutagenic call [3] was “inactive; negative”. The mutagenic call (Test System: AMES SALMONELLA TYPHIMURIUM, Strain/Indicator: TA100, Metabolic Activation: RAT, LIVER, S-9, PHENOBARBITAL, Method: STANDARD PLATE) was “inactive; negative”, the mutagenic call [4] was “inactive; negative” and the mutagenic call [5] was “inactive; negative”. The mutagenic call [6] was “inactive; negative”, the mutagenic call [7] was “inactive; negative” and the mutagenic call (Test System: AMES SALMONELLA TYPHIMURIUM, Strain/Indicator: TA1538, Metabolic Activation: NONE, Method: STANDARD PLATE) was “inactive; negative”. For the same molecule, the mutagenic call (Test System: AMES SALMONELLA TYPHIMURIUM, Strain/Indicator: TA1538, Metabolic Activation: RAT, LIVER, S-9, PHENOBARBITAL, Method: STANDARD PLATE) was “inactive; negative”.

In the case of O=Cc1ccc(O)cc1, the mutagenic call (Test System: AMES SALMONELLA TYPHIMURIUM, Strain/Indicator: TA98, Metabolic Activation: NONE, Method: PREINCUBATION) is reported as “inactive; negative”, the mutagenic call (Test System: AMES SALMONELLA TYPHIMURIUM, Strain/Indicator: TA98, Metabolic Activation: RAT LIVER S-9, PHENOBARBITAL AND BETA-NAPHTHOFLAVONE, Method: PREINCUBATION) is reported as “inactive; negative” and the mutagenic call (Test System: AMES SALMONELLA TYPHIMURIUM, Strain/Indicator: TA100, Metabolic Activation: NONE, Method: PREINCUBATION) is reported as “inactive; negative”. The mutagenic call (Test System: AMES SALMONELLA TYPHIMURIUM, Strain/Indicator: TA100, Metabolic Activation: RAT LIVER S-9, PHENOBARBITAL AND BETA-NAPHTHOFLAVONE, Method: PREINCUBATION) was “inactive; negative”, the mutagenic call (Test System: AMES SALMONELLA TYPHIMURIUM, Strain/Indicator: TA1535, Metabolic Activation: NONE, Method: PREINCUBATION) was “inactive; negative” and the mutagenic call (Test System: AMES SALMONELLA TYPHIMURIUM, Strain/Indicator: TA1535, Metabolic Activation: RAT LIVER S-9, PHENOBARBITAL AND BETA-NAPHTHOFLAVONE, Method: PREINCUBATION) was “inactive; negative”. For the same molecule, the mutagenic call (Test System: AMES SALMONELLA TYPHIMURIUM, Strain/Indicator: TA1537, Metabolic Activation: NONE, Method: PREINCUBATION) was “inactive; negative”, the mutagenic call (Test System: AMES SALMONELLA TYPHIMURIUM, Strain/Indicator: TA1537, Metabolic Activation: RAT LIVER S-9, PHENOBARBITAL AND BETA-NAPHTHOFLAVONE, Method: PREINCUBATION) was “inactive; negative” and the mutagenic call (Test System: AMES SALMONELLA TYPHIMURIUM, Strain/Indicator: TA1538, Metabolic Activation: NONE, Method: PREINCUBATION) was “inactive; negative”. The mutagenic call (Test System: AMES SALMONELLA TYPHIMURIUM, Strain/Indicator: TA1538, Metabolic Activation: RAT LIVER S-9, PHENOBARBITAL AND BETA-NAPHTHOFLAVONE, Method: PREINCUBATION) was “inactive; negative”, the mutagenic call (Test System: E.COLI, Strain/Indicator: WP2UVRA, Metabolic Activation: NONE, Method: PREINCUBATION) was “inactive; negative” and the mutagenic call (Test System: E.COLI, Strain/Indicator: WP2UVRA, Metabolic Activation: RAT LIVER S-9, PHENOBARBITAL AND BETA-NAPHTHOFLAVONE, Method: PREINCUBATION) was “inactive; negative”.

CCCCCCCCCCCCCCCC(=O)OCC1(O)CC23CC[C@@H]4c5ccoc5C=CC4(C)C2CCC1C3 (stereo not given in full) was tested, and the mutagenic call (Test System: AMES SALMONELLA TYPHIMURIUM, Strain/Indicator: TM677, Metabolic Activation: NONE, Method: PREINCUBATION) was “inactive; negative” and the mutagenic call (Test System: AMES SALMONELLA TYPHIMURIUM, Strain/Indicator: TM677, Metabolic Activation: RAT, LIVER, S-9, AROCLOR 1254, Method: PREINCUBATION) was “inactive; negative”.

In the case of CC(Br)Br, the mutagenic call [8] is reported as “inactive; negative”, the mutagenic call (Test System: AMES SALMONELLA TYPHIMURIUM, Strain/Indicator: TA2638, Metabolic Activation: NONE, Method: STANDARD PLATE) is reported as “inactive; negative” and the mutagenic call (Test System: E. COLI, Strain/Indicator: WP2 (PKM101), Metabolic Activation: NONE, Method: STANDARD PLATE) is reported as “inactive; negative”. The mutagenic call (Test System: E. COLI, Strain/Indicator: WP2 UVRA (PKM101), Metabolic Activation: NONE, Method: STANDARD PLATE) was “inactive; negative”.

Cc1ccc(N=Cc2cccc3cccnc23)c(C(=O)O)c1 was tested, and the mutagenic call [1] was “inactive; negative”, the mutagenic call [9] was “inactive; negative” and the mutagenic call [3] was “inactive; negative”. The mutagenic call (Test System: AMES SALMONELLA TYPHIMURIUM, Strain/Indicator: TA100, Metabolic Activation: RAT, LIVER, S-9, AROCLOR 1254, Method: STANDARD PLATE) was “inactive; negative”, the mutagenic call [4] was “inactive; negative” and the mutagenic call (Test System: AMES SALMONELLA TYPHIMURIUM, Strain/Indicator: TA1535, Metabolic Activation: RAT, LIVER, S-9, AROCLOR 1254, Method: STANDARD PLATE) was “inactive; negative”. For the same molecule, the mutagenic call [6] was “inactive; negative” and the mutagenic call (Test System: AMES SALMONELLA TYPHIMURIUM, Strain/Indicator: TA1537, Metabolic Activation: RAT, LIVER, S-9, AROCLOR 1254, Method: STANDARD PLATE) was “inactive; negative”.

For [Pb], the mutagenic call (End Point: IN VIVO MICRONUCLEUS, Test System: PERIPHERAL BLOOD LYMPHOCYTES, Species: HUMAN, Strain/Sex: MALE, Route: PROBABLY INHALATION, Method: 72 HR CONTINUOUS TREATMENT) was “active; positive”, the mutagenic call [1] was “inactive; negative” and the mutagenic call [2] was “inactive; negative”. For the same molecule, the mutagenic call [8] was “active; positive”, the mutagenic call (Test System: AMES SALMONELLA TYPHIMURIUM, Strain/Indicator: TA102, Metabolic Activation: RAT, LIVER, S-9, PHENOBARBITAL, Method: STANDARD PLATE) was “inactive; negative” and the mutagenic call [4] was “inactive; negative”. For the same molecule, the mutagenic call [5] was “inactive; negative”, the mutagenic call [6] was “inactive; negative” and the mutagenic call [7] was “inactive; negative”.

For Oc1ccc2c(ccc3c4ccccc4ccc23)c1, the mutagenic call [9] was “inactive; negative” and the mutagenic call [3] was “inactive; negative”.
